Experimental findings from US4163051A, “Streptomycetal antibiotic” (Beecham Group Limited, priority 1975, dated 1979) are described below.

For data set [1], the target named is T1, β-lactamase from E. coli JT4 (Escherichia coli, UniProt P62593).
T1 construct: β-lactamase from E. coli JT4; endogenous in cells; host or cells: E. coli JT4
Put plainly: β-lactamase inhibition by the method of Belgian Pat. No. 827331. The class given is biochemical. Conditions: read-out: I50 (converted).

Data set [2] deals with certain gram-positive and gram-negative organisms. Put plainly: antibacterial activity, microtitre method (general statement). The data set is classed as cell-based. Conditions: substantially pure. An excerpt:
It is likely that MM 17880 has a molecular weight between 300 and 500. […] Thus MM 17880 has the molecular formula C11-14 […]-23 O8-11 N2 S2.

The subject of data set [3] is certain β-lactamase producing strains of Staphylococcus aureus and Klebsiella aerogenes. Put plainly: synergy with β-lactam antibiotics (general statement). The data set is classed as cell-based. Conditions: substantially pure; with ampicillin, amoxycillin and the like.
In the next data set the test system is Bacillus subtilis. Put plainly: antibacterial activity (MIC), microtitre method, heavy inoculum. The data set is classed as cell-based. Conditions: overnight inoculum at 0.2%. The method, then:
(§1) The antibacterial activity of the material produced as above was determined by the microtitre method using the overnight inoculum of the test organism at 0.2% concentration. The synergistic activity of the di-sodium salt of MM 17880 in combination with ampicillin and with cephaloridine against Klebsiella aerogenes and Staphylococcus aureus Russell are shown in Table 3.
(§2) Microtitre - heavy inoculum

Data set [4] concerns Citrobacter freundii Mantio. Described as above. The data set is classed as cell-based. Conditions: overnight inoculum at 0.2%. How it is done: as §1, §2
In a further data set the test system is E. coli 10418. The description is as above. The data set is classed as cell-based. Conditions: overnight inoculum at 0.2%. How it is done:
as §1, §2

The next data set concerns E. coli JT4. Described as above. The data set is classed as cell-based. Conditions: overnight inoculum at 0.2%. The method, then:
as §1, §2

Data set [5] relates to Klebsiella aerogenes A. Described as above. Conditions: overnight inoculum at 0.2%. The class given is cell-based. The method, then: as §1, §2
Data set [6] deals with Klebsiella aerogenes Ba95. The data set is described as above. The class given is cell-based. Conditions: overnight inoculum at 0.2%. The method, then:
as §1, §2

The subject of another data set is Proteus mirabilis 13. The description is as above. Conditions: overnight inoculum at 0.2%. The class given is cell-based. The method, then: as §1, §2
For a further data set, the system named is Proteus morganii 1580. Described as above. The data set is classed as cell-based. Conditions: overnight inoculum at 0.2%. How it is done:
as §1, §2

Another data set concerns Proteus retigeri VM16. The data set is described as above. The data set is classed as cell-based. Conditions: overnight inoculum at 0.2%. How it is done:
as §1, §2

The subject of a further data set is Proteus vulgaris W090. Described as above. The class given is cell-based. Conditions: overnight inoculum at 0.2%. The method, then: as §1, §2
A further data set has as its system Pseudomonas aeruginosa A. The description is as above. Conditions: overnight inoculum at 0.2%. The data set is classed as cell-based. How it is done: as §1, §2
For data set [7], the system named is Salmonella typhimurium CT10. Described as above. The data set is classed as cell-based. Conditions: overnight inoculum at 0.2%. The method, then:
as §1, §2

Another data set relates to Serratia marcescens US1. Described as above. Conditions: overnight inoculum at 0.2%. The class given is cell-based. How it is done:
as §1, §2

Data set [8] concerns Staphylococcus aureus Oxford. Described as above. The data set is classed as cell-based. Conditions: overnight inoculum at 0.2%. The method, then: as §1, §2
The subject of data set [9] is Staphylococcus aureus Russell. The data set is described as above. The data set is classed as cell-based. Conditions: overnight inoculum at 0.2%. How it is done: as §1, §2
The test system of a further data set is Streptococcus faccalis I. The data set is described as above. The data set is classed as cell-based. Conditions: overnight inoculum at 0.2%. The method, then: as §1, §2
In data set [10] the test system is Streptococcus pyrogenes CN10. Described as above. The data set is classed as cell-based. Conditions: overnight inoculum at 0.2%. The method, then: as §1, §2
The subject of data set [11] is Klebsiella aerogenes A. Put plainly: activity in combination with ampicillin and cephaloridine (synergy, MIC). The class given is cell-based. The method, then:
as §1

Data set [12] concerns Staphylococcus aureus Russell. The description is as above. The class given is cell-based. How it is done: as §1
A short description of data set [13]: stability of salts and unsalted acid. The data set is classed as physicochemical. Conditions: salts vs unsalted acid; in solution.
A further data set deals with Klebsiella aerogenes. Put plainly: hole in plate method on agar seeded with Klebsiella aerogenes (arbitrary units). The class given is cell-based. Conditions: final solid of Example 1, sodium salt. The method, then:
300 ml. of 10% Pluronic L81 in soya-bean oil was added to prevent foaming. The fermentation was harvested after 48 hours and clarified by centrifugation. The clarified brew was arbitarily assigned an activity of 340 units/ml when assayed by the conventional hole in plate method on agar seeded with Klebsiella aerogenes.

Where a name gives a salt, the structure may show the parent alone. Where only a bound is given, the exact number is not on record here.

T1 sequence (P62593 24-286 limits assumed): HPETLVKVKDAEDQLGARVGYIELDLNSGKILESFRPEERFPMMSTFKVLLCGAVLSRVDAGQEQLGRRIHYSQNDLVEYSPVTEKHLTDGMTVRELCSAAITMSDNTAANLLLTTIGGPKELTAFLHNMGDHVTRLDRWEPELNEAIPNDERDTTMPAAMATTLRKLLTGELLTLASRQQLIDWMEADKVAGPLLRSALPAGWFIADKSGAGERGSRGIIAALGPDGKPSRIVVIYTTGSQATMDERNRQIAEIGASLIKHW

As for `CC(=O)NCCSC1=C(C(=O)O)N2C(=O)C(C(C)OS(=O)(=O)O)C2C1` (stereo not shown) [di-sodium salt of MM 17880], the IC50 in [1] was 0.634 nM. Further, in data set [2], the “level of antibacterial activity” value is on record as “good level of antibacterial activity”. The “synergy with β-lactam antibiotics” value in [3] is “able to synergyse the anti-bacterial activity of β-lactam antibiotics”.
By MIC is commonly meant the smallest concentration in the dilution series that meets the test's criterion for growth inhibition. With `CC(=O)NCCSC1=C(C(=O)O)N2C(=O)C(C(C)OS(=O)(=O)O)C2C1` (stereo not shown) [MM 17880], the MIC amounted to 0.2 mg/L with Bacillus subtilis; 3.1 mg/L in [4]; 0.1 mg/L with E. coli 10418; 3.1 mg/L in the data set on E. coli JT4; 0.8 mg/L in the data set with Klebsiella aerogenes A [5]; 12.5 mg/L in data set [6]. Also, the minimum inhibitory concentration (MIC) was 1.6 mg/L in the data set on Proteus mirabilis 13; 1.6 mg/L in the data set with Proteus morganii 1580; 0.2 mg/L in the data set with Proteus retigeri VM16; 0.2 mg/L in the data set with Proteus vulgaris W090; > 50 mg/L in the data set with Pseudomonas aeruginosa A; 0.2 mg/L in data set [7]. In addition, the MIC is 0.4 mg/L in the data set on Serratia marcescens US1; 0.4 mg/L in [8]; 0.4 mg/L in data set [9]; 6.2 mg/L with Streptococcus faccalis I; < 0.01 mg/L in [10]; 0.2 mg/L in the data set with Klebsiella aerogenes A [11]. The MIC in data set [12] amounted to 3.1 mg/L. Also, the stability entry in data set [13] is “tends to decompose in solution”. In addition, in the data set with Klebsiella aerogenes, the “activity (assayed, arbitrary units)” value is 16,000 units/mg.
In the case of `O=C(Cc1cccs1)N[C@@H]1C(=O)N2C(C(=O)[O-])=C(C[n+]3ccccc3)CS[C@H]12` [Cephaloridine, cephaloridine], the minimal inhibitory concentration (MIC) in the data set with Klebsiella aerogenes A [11] (compound alone) is 5.0 mg/L; in data set [12] (compound alone) it was 1.25 mg/L.
Take `CC1(C)S[C@@H]2[C@H](NC(=O)[C@H](N)c3ccccc3)C(=O)N2[C@H]1C(=O)O` [Ampicillin, ampicillin]: the minimum inhibitory concentration (MIC) with Klebsiella aerogenes A [11] was 250 mg/L; in data set [12], 500 mg/L.
